Target: AMPK
Test: AMPK activation, enzyme-linked immunosorbent assay
Assay type: biochemical

| EC50 (compounds of Table 1 (Table 6)) | EC50 (compounds of Table 2 (Table 7)) | SMILES |
| --- | --- | --- |
| – | 1000 to 5000 nM | N#Cc1ccc(CN2CCC(NC(=O)c3ccc4[nH]c5c(c4c3)CN(C(=O)OCc3ccccc3)CC5)CC2)cc1 [2-1, benzyl 8-(1-(4-cyanobenzyl)piperidin-4-ylcarbamoyl)-3,4-dihydro-1H-pyrido[4,3-b]indole-2(5H)-carboxylate] |
| – | 10000 to 50000 nM | O=C(NC1CCN(Cc2ccccc2)CC1)c1ccc2[nH]c3c(c2c1)CN(C(=O)OCc1ccccc1)CC3 [2-2, benzyl 8-(1-(4-benzyl)piperidin-4-ylcarbamoyl)-3,4-dihydro-1H-pyrido[4,3-b]indole-2(5H)-carboxylate] |
| – | 1000 to 5000 nM | N#Cc1ccc(CN2CCC(NC(=O)c3ccc4[nH]c5c(c4c3)CN(Cc3ccccc3)CC5)CC2)cc1 [2-4, 2-benzyl-N-(1-(4-cyanobenzyl)piperidin-4-yl)-2,3,4,5-tetrahydro-1H-pyrido[4,3-b]indole-8-carboxamide] |
| – | 1000 to 5000 nM | O=C(NC1CCN(Cc2ccc(C(F)(F)F)cc2)CC1)c1ccc2[nH]c3c(c2c1)CN(Cc1ccccc1)CC3 [2-5, 2-benzyl-N-(1-(4-trifluoromethylbenzyl)piperidin-4-yl)-2,3,4,5-tetrahydro-1H-pyrido[4,3-b]indole-8-carboxamide] |
| – | 500 to 1000 nM | CC(C)(C)OC(=O)N1CCC(NC(=O)c2ccc3[nH]c4c(c3c2)CN(Cc2ccc(C(F)(F)F)cc2)CC4)CC1 [2-6, tert-butyl 4-(2-(4-(trifluoromethyl)benzyl)-2,3,4,5-tetrahydro-1H-pyrido[4,3-b]indole-8-carboxamido) piperidine-1-carboxylate] |
| – | 5000 to 10000 nM | O=C(NC1CCN(Cc2ccncc2)CC1)c1ccc2[nH]c3c(c2c1)CN(Cc1ccccc1)CC3 [2-7, 2-benzyl-N-(1-(pyridin-4-ylmethyl)piperidin-4-yl)-2,3,4,5-tetrahydro-1H-pyrido[4,3-b]indole-8-carboxamide] |

Second part, the molecule before the results:

| SMILES | EC50 (compounds of Table 1 (Table 6)) | EC50 (compounds of Table 2 (Table 7)) |
| --- | --- | --- |
| N#Cc1ccc(CN2CCC(NC(=O)c3sc4cc(OC5CCN(c6ccc(C(F)(F)F)cc6)CC5)ccc4c3Cl)CC2)cc1 [1-154, 3-chloro-N-(1-(4-cyanobenzyl)piperidin-4-yl)-6-(1-(4-(trifluoromethyl)phenyl)piperidin-4-yloxy)benzo[b]thiophene-2-carboxamide] | < 100 nM | – |
| CC(C)(C)OC(=O)N1CCC(NC2CCc3cc(OC4CCN(c5ccc(C(F)(F)F)cc5)CC4)ccc32)CC1 (stereo not shown) [1-156, tert-butyl 4-(5-(1-(4-(trifluoromethyl)phenyl)piperidin-4-yloxy)-2,3-dihydro-1H-inden-1-ylamino)piperidine-1-carboxylate] | 100 to 500 nM | – |
| FC(F)(F)c1ccc(N2CCC(Oc3ccc4c(c3)CCC4NC3CCNCC3)CC2)cc1 (stereo not shown) [1-157, N-(5-(1-(4-(trifluoromethyl)phenyl)piperidin-4-yloxy)-2,3-dihydro-1H-inden-1-yl)piperidin-4-amine] | 1000 to 5000 nM | – |
| FC(F)(F)c1ccc(N2CCC(Oc3ccc4c(c3)CCC4NC3CCN(Cc4ccncc4)CC3)CC2)cc1 (stereo not shown) [1-158, 1-(pyridin-4-ylmethyl)-N-(5-(1-(4-(trifluoromethyl)phenyl)piperidin-4-yloxy)-2,3-dihydro-1H-inden-1-yl)piperidin-4-amine] | 100 to 500 nM | – |
| Fc1ccc(CN2CCC(NC3CCc4cc(OC5CCN(c6ccc(C(F)(F)F)cc6)CC5)ccc43)CC2)cc1 (stereo not shown) [1-159, 1-(4-fluorobenzyl)-N-(5-(1-(4-(trifluoromethyl)phenyl)piperidin-4-yloxy)-2,3-dihydro-1H-inden-1-yl)piperidin-4-amine] | 100 to 500 nM | – |
| N#Cc1ccc(CN2CCC(NC3CCc4cc(OC5CCN(c6ccc(C(F)(F)F)cc6)CC5)ccc43)CC2)cc1 (stereo not shown) [1-160, 4-((4-(5-(1-(4-(trifluoromethyl)phenyl)piperidin-4-yloxy)-2,3-dihydro-1H-inden-1-ylamino)piperidin-1-yl)methyl)benzonitrile] | < 100 nM | – |
| CC(C)(C)OC(=O)N1CCC(NC(=O)c2ccc3[nH]c4c(c3c2)CN(C(=O)OCc2ccccc2)CC4)CC1 [2-3, benzyl 8-(1-(tert-butoxycarbonyl)piperidin-4-ylcarbamoyl)-3,4-dihydro-1H-pyrido[4,3-b]indole-2(5H)-carboxylate] | – | 10000 to 50000 nM |

— US9511058B2, “Methods for using carboxamide, sulfonamide and amine compounds” (Rigel Pharmaceuticals, Inc., priority 2010, dated 2016)
